Broadly, the solubility is the concentration that dissolves in the medium under given conditions.

The nature of this series: solubility in water of the azo compound. The format is physicochemical. Particulars: mixed salt of lithium and sodium.
On to `Cc1cc(N=Nc2c(S(=O)(=O)O)cc3c(S(=O)(=O)O)c(N=Nc4cc(S(=O)(=O)O)c5cc(S(=O)(=O)O)c(N=Nc6ccc([N+](=O)[O-])cc6S(=O)(=O)O)c(O)c5c4N)ccc3c2O)c(OCCCS(=O)(=O)O)cc1N=Nc1ccc([N+](=O)[O-])cc1S(=O)(=O)O` [compound 16], for which the solubility was ≥ 100 mg/mL.
In the case of `Nc1c(N=Nc2ccc3c(O)c(N=Nc4ccc(N=Nc5ccc(S(=O)(=O)O)cc5)cc4S(=O)(=O)O)c(S(=O)(=O)O)cc3c2S(=O)(=O)O)cc(S(=O)(=O)O)c2cc(S(=O)(=O)O)c(N=Nc3ccc(S(=O)(=O)O)cc3[N+](=O)[O-])c(O)c12` [compound 3], the solubility is ≥ 100 mg/mL.
Consider `Cc1cc(N=Nc2c(S(=O)(=O)O)cc3c(S(=O)(=O)O)c(N=Nc4cc(S(=O)(=O)O)c5cc(S(=O)(=O)O)c(N=Nc6ccc([N+](=O)[O-])cc6S(=O)(=O)O)c(O)c5c4N)ccc3c2O)c(OCCCS(=O)(=O)O)cc1N=Nc1ccc(S(=O)(=O)O)cc1C(=O)O` [compound 21], for which the solubility was ≥ 100 mg/mL.
For `Nc1c(N=Nc2ccc3c(O)c(N=Nc4ccc(N=Nc5ccc(S(=O)(=O)O)cc5)cc4S(=O)(=O)O)c(S(=O)(=O)O)cc3c2S(=O)(=O)O)cc(S(=O)(=O)O)c2cc(S(=O)(=O)O)c(N=Nc3ccc([N+](=O)[O-])cc3S(=O)(=O)O)c(O)c12` [compound 1] the value was ≥ 100 mg/mL.
